In patent EP3722296B1, “DIHYDRONAPHTHYRIDINES AND RELATED COMPOUNDS USEFUL AS KINASE INHIBITORS FOR THE TREATMENT OF PROLIFERATIVE DISEASES” (Deciphera Pharmaceuticals, LLC, priority 2012, dated 2013) one finds IC50 data, which are given here for one molecule.

The assay deals with T1, AY502 duplication/D816G KIT (Homo sapiens, UniProt P10721, D816G/DUP502-503).
T1 construct: V5 (vector-encoded); expressed in transfected cells; host or cells: CHO K1
The assay can be described thus: CHO K1 phospho-KIT ELISA. It is filed as cell-based. To be noted: transient transfected CHO K1 cells, phospho-c-KIT (Tyr719), read-out: KIT kinase domain mutations (primary/secondary): AY502 duplication / D816G.

T1 sequence (P10721 with tags, fused parts or gaps DUP502-503/D816G): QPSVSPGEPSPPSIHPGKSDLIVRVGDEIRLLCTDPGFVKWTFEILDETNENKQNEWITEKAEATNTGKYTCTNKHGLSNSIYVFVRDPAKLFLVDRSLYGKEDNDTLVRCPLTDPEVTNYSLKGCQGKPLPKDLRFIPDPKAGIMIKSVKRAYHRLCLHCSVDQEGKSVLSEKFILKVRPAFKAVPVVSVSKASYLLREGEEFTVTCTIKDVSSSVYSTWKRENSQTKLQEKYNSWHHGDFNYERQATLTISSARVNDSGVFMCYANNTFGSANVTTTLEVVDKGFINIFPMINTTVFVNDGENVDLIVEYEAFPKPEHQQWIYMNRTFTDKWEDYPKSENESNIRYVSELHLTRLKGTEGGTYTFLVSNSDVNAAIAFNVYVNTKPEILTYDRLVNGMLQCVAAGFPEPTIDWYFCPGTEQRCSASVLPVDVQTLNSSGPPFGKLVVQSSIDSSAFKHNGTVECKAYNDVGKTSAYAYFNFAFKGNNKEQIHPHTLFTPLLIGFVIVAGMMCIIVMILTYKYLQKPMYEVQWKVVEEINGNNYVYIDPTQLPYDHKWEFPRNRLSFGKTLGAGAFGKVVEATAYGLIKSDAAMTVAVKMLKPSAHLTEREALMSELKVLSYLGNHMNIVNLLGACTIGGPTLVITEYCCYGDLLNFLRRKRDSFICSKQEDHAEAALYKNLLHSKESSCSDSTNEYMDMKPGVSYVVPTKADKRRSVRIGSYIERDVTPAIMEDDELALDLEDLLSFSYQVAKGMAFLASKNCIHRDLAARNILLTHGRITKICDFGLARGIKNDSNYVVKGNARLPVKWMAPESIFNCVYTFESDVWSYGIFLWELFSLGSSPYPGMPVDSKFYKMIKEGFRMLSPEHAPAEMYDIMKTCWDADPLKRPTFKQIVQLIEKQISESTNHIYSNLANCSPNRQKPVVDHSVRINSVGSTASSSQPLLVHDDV
Description: CHO K1 cells (catalog #CCL-61) were obtained from the American Type Culture Collection, Manassas, VA. […] Cells were allowed to expand until reaching 70-95% confluency at which point they were subcultured or harvested for assay use.
Cells were then incubated overnight at 37°C, 5% CO2, 95% RH. Transfection-grade pcDNA3.2 V5 DEST expression vector containing KIT variant, Lipofectamine LTX Reagent, and PLUS reagent (Invitrogen, Carlsbad, CA) were diluted into Opti-MEM® I medium (Invitrogen, Carlsbad, CA). The tube was incubated at room temperature to allow formation of DNA-Lipofectamine LTX complexes. The DNA-lipofectamine LTX complex mix was added directly to each well and mixed gently. Eighteen hours post-transfection, medium was replaced with serum-free RPMI medium. A serial dilution of test compound was added, and plates were incubated for 4 hours at 37°C, 5% CO2, 95% RH. Cell lysates were prepared, then phospho-c-KIT (Tyr719) was measured by using a Human phospho-c-KIT ELISA kit (Cell Signaling, Beverly, MA). Data was analyzed using Prism software (Graphpad, San Diego, CA) to calculate IC50 values.

On to `CCn1c(=O)c(-c2cc(NC(=O)Nc3ccccc3)c(F)cc2C)cc2cnc(NC)cc21` [Example 23, 1-(5-(1-ethyl-7-(methylamino)-2-oxo-1,2-dihydro-1,6-naphthyridin-3-yl)-2-fluoro-4-methylphenyl)-3-phenylurea], for which the IC50 fell in the range of 0.01 to 0.1 µM.
